Measurements from patent US9050341B2, “Methods of treating drug resistant and other tumors by administering 6,7-dialkoxy quinazoline derivatives” (NATCO PHARMA LIMITED, priority 2009, dated 2015).

Assays:
Experiment in all cases: KinomeScan kinase profiling
Type in all cases: binding
BIKE = target: T1, BIKE (Homo sapiens, UniProt Q9NSY1)
T1 construct: purchased Ambit Biosciences Corp (KinomeScan); host or cells: E. coli host derived from the BL21 strain, T7 phage
Procedure, shortened: (§1)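 Kinases were expressed as T7 phage fusions in a BL21-derived E. coli host and the cleared lysates were used. Ligand beads were blocked with biotin and buffer (1% BSA, 0.05% Tween 20, 1 mM DTT). Compounds came from 40× DMSO stocks, and phage in the eluates was titred by qPCR.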

CAMK4 = target: T2, CAMK4 (Homo sapiens, UniProt Q16566)
T2 construct: host or cells: T7 phage in E. coli (BL21-derived)
Procedure, shortened: as §1

CDC2L2 = target: T3, CDC2L2 (Homo sapiens, UniProt Q9UQ88)
T3 construct: host or cells: T7 phage in E. coli (BL21-derived)
Procedure, shortened: as §1

[1] = target: T4, EGFR (L747-S752del, P753S) (Homo sapiens, UniProt P00533, DEL747-752/P753S)
T4 construct: purchased Ambit Biosciences Corp (KinomeScan); host or cells: T7 phage in E. coli host derived from BL21
Procedure, shortened: as §1

EPHA6 = target: T5, EPHA6 (Homo sapiens, UniProt Q9UF33)
T5 construct: host or cells: E. coli host derived from BL21, T7 phage lysate
Procedure, shortened: as §1

EPHA8 = target: T6, EPHA8 (Homo sapiens, UniProt P29322)
T6 construct: host or cells: E. coli host derived from BL21, T7 phage lysate
Procedure, shortened: as §1

FGFR3 = target: T7, FGFR3 (Homo sapiens, UniProt P22607)
T7 construct: host or cells: E. coli host derived from BL21, infected with T7 phage
Procedure, shortened: as §1

LCK = target: T8, LCK (Homo sapiens, UniProt P06239)
T8 construct: host or cells: T7 phage in E. coli host derived from BL21
Procedure, shortened: as §1

LIMK2 = target: T9, LIMK2 (Homo sapiens, UniProt P53671)
T9 construct: host or cells: T7 phage in E. coli host derived from BL21
Procedure, shortened: as §1

MST1R = target: T10, MST1R (Homo sapiens, UniProt Q04912)
T10 construct: host or cells: T7 phage in E. coli host derived from BL21
Procedure, shortened: as §1

MYO3A = target: T11, MYO3A (Homo sapiens, UniProt Q8NEV4)
T11 construct: host or cells: T7 phage in E. coli host derived from BL21
Procedure, shortened: as §1

NEK6 = target: T12, NEK6 (Homo sapiens, UniProt Q9HC98)
T12 construct: host or cells: T7 phage in E. coli host derived from BL21
Procedure, shortened: as §1

PDGFRB = target: T13, PDGFRB (Homo sapiens, UniProt P09619)
T13 construct: host or cells: E. coli host derived from the BL21 strain, infected with T7 phage
Procedure, shortened: as §1

PHKG1 = target: T14, PHKG1 (Homo sapiens, UniProt Q16816)
T14 construct: host or cells: E. coli host derived from the BL21 strain, infected with T7 phage
Procedure, shortened: as §1

RIOK3 = target: T15, RIOK3 (Homo sapiens, UniProt O14730)
T15 construct: host or cells: E. coli host derived from BL21, T7 phage lysate
Procedure, shortened: as §1

RIPK1 = target: T16, RIPK1 (Homo sapiens, UniProt Q13546)
T16 construct: host or cells: E. coli host derived from BL21, T7 phage lysate
Procedure, shortened: as §1

SLK = target: T17, SLK (Homo sapiens, UniProt Q9H2G2)
T17 construct: host or cells: E. coli host derived from the BL21 strain, T7 phage lysate
Procedure, shortened: as §1

SNARK = target: T18, SNARK (Homo sapiens, UniProt Q9H093)
T18 construct: host or cells: E. coli host derived from the BL21 strain, T7 phage lysate
Procedure, shortened: as §1

TGFBR2 = target: T19, TGFBR2 (Homo sapiens, UniProt P37173)
T19 construct: host or cells: E. coli host derived from the BL21 strain, T7 phage lysate
Procedure, shortened: as §1

TXK = target: T20, TXK (Homo sapiens, UniProt P42681)
T20 construct: purchased Ambit Biosciences Corp (KinomeScan); host or cells: E. coli host derived from the BL21 strain (T7 phage lysate)
Procedure, shortened: as §1

[2] = target: T21, TYK2 (JH2domain-pseudokinase) (Homo sapiens, UniProt P29597)
T21 construct: TYK2 (JH2domain-pseudokinase); purchased Ambit Biosciences Corp (KinomeScan); host or cells: E. coli host derived from the BL21 strain (T7 phage lysate)
Procedure, shortened: as §1

ZAK = target: T22, ZAK (Homo sapiens, UniProt Q9NYL2)
T22 construct: host or cells: E. coli host derived from the BL21 strain, infected with T7 phage
Procedure, shortened: as §1

p38-gamma = target: T23, p38-gamma (Homo sapiens, UniProt P53778)
T23 construct: host or cells: E. coli host derived from the BL21 strain, infected with T7 phage
Procedure, shortened: as §1

T10 sequence (Q04912 25-1400): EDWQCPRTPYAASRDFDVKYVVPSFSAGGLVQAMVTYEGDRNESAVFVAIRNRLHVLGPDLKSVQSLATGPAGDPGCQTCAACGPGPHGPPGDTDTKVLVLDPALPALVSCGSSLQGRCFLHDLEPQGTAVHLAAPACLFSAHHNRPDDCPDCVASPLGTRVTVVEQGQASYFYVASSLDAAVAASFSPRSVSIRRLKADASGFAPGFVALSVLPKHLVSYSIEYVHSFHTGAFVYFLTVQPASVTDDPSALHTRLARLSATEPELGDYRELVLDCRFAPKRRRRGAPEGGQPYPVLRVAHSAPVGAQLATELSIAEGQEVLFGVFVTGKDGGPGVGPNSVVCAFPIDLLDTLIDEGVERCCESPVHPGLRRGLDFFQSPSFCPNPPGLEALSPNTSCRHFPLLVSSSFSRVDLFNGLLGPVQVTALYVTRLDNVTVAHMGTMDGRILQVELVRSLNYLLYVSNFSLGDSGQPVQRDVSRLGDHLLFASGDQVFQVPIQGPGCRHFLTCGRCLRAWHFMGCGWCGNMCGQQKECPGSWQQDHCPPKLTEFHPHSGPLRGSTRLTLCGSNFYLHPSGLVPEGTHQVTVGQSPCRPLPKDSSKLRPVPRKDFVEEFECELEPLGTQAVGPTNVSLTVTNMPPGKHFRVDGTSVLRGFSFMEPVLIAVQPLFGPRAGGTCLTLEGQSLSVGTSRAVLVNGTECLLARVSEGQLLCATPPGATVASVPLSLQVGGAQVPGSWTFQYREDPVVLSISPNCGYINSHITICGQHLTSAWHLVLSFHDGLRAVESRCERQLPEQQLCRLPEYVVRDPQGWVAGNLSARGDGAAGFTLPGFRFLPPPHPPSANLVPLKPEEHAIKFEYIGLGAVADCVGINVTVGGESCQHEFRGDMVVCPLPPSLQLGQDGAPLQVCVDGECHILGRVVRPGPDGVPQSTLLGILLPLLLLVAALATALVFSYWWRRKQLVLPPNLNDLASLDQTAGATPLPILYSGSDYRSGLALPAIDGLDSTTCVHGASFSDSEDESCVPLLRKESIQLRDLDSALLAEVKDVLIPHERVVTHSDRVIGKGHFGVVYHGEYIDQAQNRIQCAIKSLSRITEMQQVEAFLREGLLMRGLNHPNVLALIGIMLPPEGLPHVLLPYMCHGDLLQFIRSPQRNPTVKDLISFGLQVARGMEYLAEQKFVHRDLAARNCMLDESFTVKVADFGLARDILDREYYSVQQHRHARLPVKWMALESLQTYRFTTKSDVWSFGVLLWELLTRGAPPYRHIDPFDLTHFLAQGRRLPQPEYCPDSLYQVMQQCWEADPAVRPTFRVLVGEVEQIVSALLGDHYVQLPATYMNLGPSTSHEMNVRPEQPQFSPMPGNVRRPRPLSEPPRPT
T1 sequence (Q9NSY1 whole entry): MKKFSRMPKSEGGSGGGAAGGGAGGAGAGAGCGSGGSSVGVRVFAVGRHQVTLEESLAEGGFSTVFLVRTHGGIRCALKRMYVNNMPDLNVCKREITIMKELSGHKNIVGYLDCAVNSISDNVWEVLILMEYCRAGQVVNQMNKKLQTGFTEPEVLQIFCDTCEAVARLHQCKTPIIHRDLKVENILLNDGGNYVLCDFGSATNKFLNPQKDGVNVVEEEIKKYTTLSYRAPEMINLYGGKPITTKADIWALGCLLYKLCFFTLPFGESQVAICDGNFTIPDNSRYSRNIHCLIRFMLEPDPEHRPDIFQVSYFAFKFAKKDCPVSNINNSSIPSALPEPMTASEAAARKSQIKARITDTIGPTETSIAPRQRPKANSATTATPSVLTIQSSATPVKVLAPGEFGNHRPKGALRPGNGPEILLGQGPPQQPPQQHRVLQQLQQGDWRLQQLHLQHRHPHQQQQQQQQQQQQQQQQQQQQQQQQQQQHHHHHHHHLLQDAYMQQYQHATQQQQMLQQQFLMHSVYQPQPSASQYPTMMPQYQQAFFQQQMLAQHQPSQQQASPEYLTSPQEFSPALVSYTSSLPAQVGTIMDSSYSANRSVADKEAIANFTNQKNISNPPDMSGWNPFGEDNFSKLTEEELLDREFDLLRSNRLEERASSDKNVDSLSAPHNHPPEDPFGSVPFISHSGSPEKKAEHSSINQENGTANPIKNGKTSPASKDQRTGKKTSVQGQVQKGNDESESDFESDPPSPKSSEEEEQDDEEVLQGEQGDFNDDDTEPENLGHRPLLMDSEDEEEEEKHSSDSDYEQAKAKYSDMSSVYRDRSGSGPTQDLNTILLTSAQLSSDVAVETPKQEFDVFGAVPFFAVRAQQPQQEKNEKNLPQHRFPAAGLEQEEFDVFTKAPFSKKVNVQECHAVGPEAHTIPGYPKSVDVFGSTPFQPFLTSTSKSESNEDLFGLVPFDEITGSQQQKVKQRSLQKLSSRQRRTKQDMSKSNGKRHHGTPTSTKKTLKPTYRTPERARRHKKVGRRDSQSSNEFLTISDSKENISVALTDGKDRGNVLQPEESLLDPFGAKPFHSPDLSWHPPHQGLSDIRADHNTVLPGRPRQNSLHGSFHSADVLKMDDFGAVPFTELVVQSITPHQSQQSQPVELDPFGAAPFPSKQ
T17 sequence (Q9H2G2 whole entry): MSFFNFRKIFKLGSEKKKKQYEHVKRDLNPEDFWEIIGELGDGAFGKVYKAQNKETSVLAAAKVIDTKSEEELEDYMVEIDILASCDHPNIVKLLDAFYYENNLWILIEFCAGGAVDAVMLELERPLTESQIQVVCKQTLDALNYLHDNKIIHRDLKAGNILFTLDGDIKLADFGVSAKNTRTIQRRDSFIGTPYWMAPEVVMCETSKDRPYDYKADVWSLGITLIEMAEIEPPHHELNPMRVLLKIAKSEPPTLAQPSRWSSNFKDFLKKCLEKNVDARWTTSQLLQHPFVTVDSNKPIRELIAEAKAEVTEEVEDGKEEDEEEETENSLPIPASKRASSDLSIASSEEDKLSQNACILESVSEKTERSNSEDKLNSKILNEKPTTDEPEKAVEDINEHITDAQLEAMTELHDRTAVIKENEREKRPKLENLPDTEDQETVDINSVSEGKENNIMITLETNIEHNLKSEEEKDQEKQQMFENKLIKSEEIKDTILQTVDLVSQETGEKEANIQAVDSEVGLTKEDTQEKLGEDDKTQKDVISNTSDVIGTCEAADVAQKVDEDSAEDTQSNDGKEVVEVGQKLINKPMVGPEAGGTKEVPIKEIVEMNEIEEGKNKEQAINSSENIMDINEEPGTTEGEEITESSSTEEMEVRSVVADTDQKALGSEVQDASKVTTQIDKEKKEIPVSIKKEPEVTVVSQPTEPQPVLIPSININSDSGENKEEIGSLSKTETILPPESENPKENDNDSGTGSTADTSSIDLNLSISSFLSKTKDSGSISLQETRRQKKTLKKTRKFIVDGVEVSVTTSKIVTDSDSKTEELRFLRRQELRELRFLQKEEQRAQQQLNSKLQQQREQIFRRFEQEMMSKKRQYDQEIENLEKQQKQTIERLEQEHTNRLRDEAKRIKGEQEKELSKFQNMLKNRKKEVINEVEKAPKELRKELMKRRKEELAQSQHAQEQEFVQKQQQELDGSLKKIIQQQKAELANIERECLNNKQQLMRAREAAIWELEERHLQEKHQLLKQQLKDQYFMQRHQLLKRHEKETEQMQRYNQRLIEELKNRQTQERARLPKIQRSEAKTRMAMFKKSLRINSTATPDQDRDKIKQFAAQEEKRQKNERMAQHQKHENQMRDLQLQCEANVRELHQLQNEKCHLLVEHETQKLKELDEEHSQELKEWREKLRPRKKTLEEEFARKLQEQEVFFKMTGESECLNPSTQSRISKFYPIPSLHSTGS
T16 sequence (Q13546 whole entry): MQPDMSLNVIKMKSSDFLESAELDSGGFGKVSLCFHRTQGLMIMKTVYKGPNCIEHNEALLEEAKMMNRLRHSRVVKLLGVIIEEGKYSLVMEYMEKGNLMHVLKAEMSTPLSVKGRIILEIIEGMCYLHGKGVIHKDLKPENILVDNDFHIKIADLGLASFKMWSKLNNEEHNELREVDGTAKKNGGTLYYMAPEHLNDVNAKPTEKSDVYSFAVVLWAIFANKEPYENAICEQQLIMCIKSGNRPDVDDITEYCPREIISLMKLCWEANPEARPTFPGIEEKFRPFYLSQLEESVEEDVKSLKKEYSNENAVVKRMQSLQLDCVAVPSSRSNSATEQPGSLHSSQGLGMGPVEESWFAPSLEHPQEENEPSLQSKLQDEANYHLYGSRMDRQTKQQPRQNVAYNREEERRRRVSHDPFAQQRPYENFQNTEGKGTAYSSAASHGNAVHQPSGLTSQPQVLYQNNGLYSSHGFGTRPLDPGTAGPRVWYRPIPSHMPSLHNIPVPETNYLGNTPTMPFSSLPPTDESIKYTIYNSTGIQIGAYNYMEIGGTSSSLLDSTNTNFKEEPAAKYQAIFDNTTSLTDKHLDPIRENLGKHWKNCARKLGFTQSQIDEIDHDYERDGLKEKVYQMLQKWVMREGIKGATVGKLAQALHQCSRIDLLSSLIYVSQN
T2 sequence (Q16566 whole entry): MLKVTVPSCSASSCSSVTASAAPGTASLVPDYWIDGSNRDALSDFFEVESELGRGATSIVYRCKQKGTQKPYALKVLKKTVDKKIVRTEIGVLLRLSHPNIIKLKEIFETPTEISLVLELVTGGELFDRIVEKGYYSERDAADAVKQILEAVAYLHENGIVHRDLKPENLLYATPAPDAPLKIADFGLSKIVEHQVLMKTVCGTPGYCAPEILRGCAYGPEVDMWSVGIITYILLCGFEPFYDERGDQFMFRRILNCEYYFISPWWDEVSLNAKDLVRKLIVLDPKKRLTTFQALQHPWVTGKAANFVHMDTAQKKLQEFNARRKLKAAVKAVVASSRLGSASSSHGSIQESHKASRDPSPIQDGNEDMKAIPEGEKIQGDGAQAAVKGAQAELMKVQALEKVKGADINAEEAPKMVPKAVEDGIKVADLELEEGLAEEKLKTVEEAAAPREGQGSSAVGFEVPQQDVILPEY

For C#Cc1cccc(Nc2ncnc3cc(OC)c(OCCCN4CCOCC4)cc23)c1 [NRC-2694, N-(3-ethylnylphenyl)-7-methoxy-6-[3-(4-morpholinyl)propoxy]-4-quinazolinamine], the “% Ctrl @ 10000 nM” value (BIKE) was 36 % Ctrl, the “% Ctrl @ 10000 nM” value (CAMK4) was 92 % Ctrl and the “% Ctrl @ 10000 nM” value (CDC2L2) was 37 % Ctrl. The “% Ctrl @ 10000 nM” value [1] was 0.1 % Ctrl, the “% Ctrl @ 10000 nM” value (EPHA6) was 25 % Ctrl and the “% Ctrl @ 10000 nM” value (EPHA8) was 66 % Ctrl. The “% Ctrl @ 10000 nM” value (FGFR3) was 100 % Ctrl, the “% Ctrl @ 10000 nM” value (LCK) was 1.5 % Ctrl and the “% Ctrl @ 10000 nM” value (LIMK2) was 100 % Ctrl. The “% Ctrl @ 10000 nM” value (MST1R) was 94 % Ctrl, the “% Ctrl @ 10000 nM” value (MYO3A) was 70 % Ctrl and the “% Ctrl @ 10000 nM” value (NEK6) was 94 % Ctrl. For the same compound, the “% Ctrl @ 10000 nM” value (PDGFRB) was 10 % Ctrl, the “% Ctrl @ 10000 nM” value (PHKG1) was 50 % Ctrl and the “% Ctrl @ 10000 nM” value (RIOK3) was 37 % Ctrl. For the same compound, the “% Ctrl @ 10000 nM” value (RIPK1) was 100 % Ctrl, the “% Ctrl @ 10000 nM” value (SLK) was 0.3 % Ctrl and the “% Ctrl @ 10000 nM” value (SNARK) was 19 % Ctrl. The “% Ctrl @ 10000 nM” value (TGFBR2) was 86 % Ctrl, the “% Ctrl @ 10000 nM” value (TXK) was 39 % Ctrl and the “% Ctrl @ 10000 nM” value [2] was 23 % Ctrl. The “% Ctrl @ 10000 nM” value (ZAK) was 74 % Ctrl and the “% Ctrl @ 10000 nM” value (p38-gamma) was 97 % Ctrl.
